Test results: ChEMBL document CHEMBL3046759, “Seed and leaf treatments with natural compounds to induce resistance against Peronospora parasitica in Brassica oleracea” (2012)
Calls of active or inactive are those of the source. The rule behind the calls is not given here.

Tests used:
[1] = tested on: Hyaloperonospora parasitica; assay: Induction of systemic acquired resistance against Hyaloperonospora parasitica-induced downy mildew disease in white cabbage assessed as infected leaf area at 1 mM sprayed on leaves of one week old seedlings relative to untreated control; type: functional, organism-based
[2] = tested on: Hyaloperonospora parasitica; assay: Induction of systemic acquired resistance against Hyaloperonospora parasitica-induced downy mildew disease in white cabbage assessed as infected leaf area sprayed on leaves of one week old seedlings relative to untreated control; type: functional
Brassica oleracea [3] = assay: Induction of systemic acquired resistance in Brassica oleracea (white cabbage) plants assessed as increase in glucanase activity at 1 mM sprayed on seeds by colorimetric assay; type: functional, organism-based
Brassica oleracea [4] = assay: Induction of systemic acquired resistance in Brassica oleracea (white cabbage) plants assessed as increase in glucanase activity at 1 mM sprayed on leaves of 3 weeks old seedlings by colorimetric assay; type: functional, organism-based
Brassica oleracea [5] = assay: Induction of systemic acquired resistance in Brassica oleracea (white cabbage) plants assessed as increase in chitinase activity at 1 mM sprayed on seeds by colorimetric assay; type: functional, organism-based
Brassica oleracea [6] = assay: Induction of systemic acquired resistance in Brassica oleracea (white cabbage) plants assessed as increase in chitinase activity at 1 mM sprayed on leaves of 3 weeks old seedlings by colorimetric assay; type: functional, organism-based
[7] = tested on: Hyaloperonospora parasitica; assay: Induction of systemic acquired resistance against Hyaloperonospora parasitica-induced downy mildew disease in white cabbage assessed as disease index at 1 mM sprayed on leaves exposed to compound for 2 to 48 hr measured 10 days after planting; type: functional, organism-based; conditions: TDE = time-dependent effect
Brassica oleracea [8] = assay: Induction of systemic acquired resistance in Brassica oleracea (white cabbage) plants assessed as increase in chitinase activity at 1 mM sprayed on leaves exposed to compound for 2 to 48 hr measured 10 days after planting by colorimetric assay; type: functional, organism-based; conditions: TDE = time-dependent effect
Brassica oleracea [9] = assay: Induction of systemic acquired resistance in Brassica oleracea (white cabbage) plants assessed as increase in glucanase activity at 1 mM sprayed on leaves exposed to compound for 2 to 48 hr measured 10 days after planting by colorimetric assay; type: functional, organism-based; conditions: TDE = time-dependent effect
Brassica oleracea [10] = assay: Induction of systemic acquired resistance in Brassica oleracea (white cabbage) plants assessed as increase in glucanase activity at 10 mM sprayed on seeds by colorimetric assay; type: functional, organism-based
Brassica oleracea [11] = assay: Induction of systemic acquired resistance in Brassica oleracea (white cabbage) plants assessed as increase in chitinase activity at 10 mM sprayed on seeds by colorimetric assay; type: functional, organism-based
Brassica oleracea [12] = assay: Induction of systemic acquired resistance in Brassica oleracea (white cabbage) plants assessed as increase in glucanase activity at 10 mM sprayed on leaves of 3 weeks old seedlings by colorimetric assay; type: functional, organism-based
Brassica oleracea [13] = assay: Induction of systemic acquired resistance in Brassica oleracea (white cabbage) plants assessed as increase in chitinase activity at 10 mM sprayed on leaves of 3 weeks old seedlings by colorimetric assay; type: functional, organism-based

## CUPRIC SULFATE
[1]
  Activity: 0.01%

## CCCOC(=O)NCCCN(C)C.Cl [PROPAMOCARB HYDROCHLORIDE]
[2]
  Activity: 56.4%

## O=C(O)c1cc(Cl)nc(Cl)c1
Brassica oleracea [3]
  Activity: Active
Brassica oleracea [4]
  Activity: Active
Brassica oleracea [5]
  Activity: Active
Brassica oleracea [6]
  Activity: Active
[7]
  Activity: tde
Brassica oleracea [8]
  Activity: tde
Brassica oleracea [9]
  Activity: tde

## MANGANESE CHLORIDE ANHYDROUS
Brassica oleracea [10]
  Activity: inactive
Brassica oleracea [11]
  Activity: inactive
Brassica oleracea [12]
  Activity: Active
Brassica oleracea [13]
  Activity: Active
